Assay results taken from ChEMBL document CHEMBL5723585, “Data for DCP probe JNJ-54082730” (2024).

How the values were obtained:
[1] = target: cGMP-dependent 3',5'-cyclic phosphodiesterase (Rattus norvegicus) (UniProt Q01062); assay: Target occupancy in striatum ( p.o.dose, 1 h); type: organism-based
[2] = target: cAMP and cAMP-inhibited cGMP 3',5'-cyclic phosphodiesterase 10A (Homo sapiens, UniProt Q9Y233); assay: Scintillation proximity assay (PDE10A)
Phosphodiesterase 3 = Phosphodiesterase 3 (Homo sapiens, UniProt Q14432+Q13370); assay: Scintillation proximity assay (PDE3); type: protein assay
[3] = target: cGMP-dependent 3',5'-cyclic phosphodiesterase (Homo sapiens, UniProt O00408); assay: Scintillation proximity assay (PDE2A) ( Mean (95% Confidence Interval) = 0.8 -1 nM; Ki = 0.7 nM)
Chain of cGMP-dependent 3',5'-cyclic phosphodiesterase (O00408 whole entry): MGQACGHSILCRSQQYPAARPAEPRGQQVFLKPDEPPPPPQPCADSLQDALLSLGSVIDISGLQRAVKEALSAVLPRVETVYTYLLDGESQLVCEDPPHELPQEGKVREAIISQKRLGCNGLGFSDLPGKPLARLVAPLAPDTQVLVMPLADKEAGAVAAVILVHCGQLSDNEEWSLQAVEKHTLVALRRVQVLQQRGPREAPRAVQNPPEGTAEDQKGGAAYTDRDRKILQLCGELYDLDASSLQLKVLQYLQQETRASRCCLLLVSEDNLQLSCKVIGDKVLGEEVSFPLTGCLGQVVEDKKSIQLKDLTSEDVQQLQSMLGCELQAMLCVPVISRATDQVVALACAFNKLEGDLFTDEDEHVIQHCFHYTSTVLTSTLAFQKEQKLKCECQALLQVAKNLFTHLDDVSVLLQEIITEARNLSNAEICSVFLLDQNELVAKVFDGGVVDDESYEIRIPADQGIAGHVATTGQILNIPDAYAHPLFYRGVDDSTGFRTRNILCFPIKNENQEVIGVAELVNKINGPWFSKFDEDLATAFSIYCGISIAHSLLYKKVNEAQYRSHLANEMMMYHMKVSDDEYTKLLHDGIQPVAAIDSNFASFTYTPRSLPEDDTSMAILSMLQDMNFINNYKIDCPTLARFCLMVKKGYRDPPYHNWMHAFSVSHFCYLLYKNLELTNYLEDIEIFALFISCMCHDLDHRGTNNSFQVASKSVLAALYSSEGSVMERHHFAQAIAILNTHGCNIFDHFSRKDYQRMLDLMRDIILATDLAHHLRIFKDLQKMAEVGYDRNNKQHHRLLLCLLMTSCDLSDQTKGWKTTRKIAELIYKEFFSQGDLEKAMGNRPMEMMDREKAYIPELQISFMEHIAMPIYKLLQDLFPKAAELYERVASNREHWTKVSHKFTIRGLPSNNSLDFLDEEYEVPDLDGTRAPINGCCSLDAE

Chain of cGMP-dependent 3',5'-cyclic phosphodiesterase (Rattus norvegicus) (Q01062 whole entry): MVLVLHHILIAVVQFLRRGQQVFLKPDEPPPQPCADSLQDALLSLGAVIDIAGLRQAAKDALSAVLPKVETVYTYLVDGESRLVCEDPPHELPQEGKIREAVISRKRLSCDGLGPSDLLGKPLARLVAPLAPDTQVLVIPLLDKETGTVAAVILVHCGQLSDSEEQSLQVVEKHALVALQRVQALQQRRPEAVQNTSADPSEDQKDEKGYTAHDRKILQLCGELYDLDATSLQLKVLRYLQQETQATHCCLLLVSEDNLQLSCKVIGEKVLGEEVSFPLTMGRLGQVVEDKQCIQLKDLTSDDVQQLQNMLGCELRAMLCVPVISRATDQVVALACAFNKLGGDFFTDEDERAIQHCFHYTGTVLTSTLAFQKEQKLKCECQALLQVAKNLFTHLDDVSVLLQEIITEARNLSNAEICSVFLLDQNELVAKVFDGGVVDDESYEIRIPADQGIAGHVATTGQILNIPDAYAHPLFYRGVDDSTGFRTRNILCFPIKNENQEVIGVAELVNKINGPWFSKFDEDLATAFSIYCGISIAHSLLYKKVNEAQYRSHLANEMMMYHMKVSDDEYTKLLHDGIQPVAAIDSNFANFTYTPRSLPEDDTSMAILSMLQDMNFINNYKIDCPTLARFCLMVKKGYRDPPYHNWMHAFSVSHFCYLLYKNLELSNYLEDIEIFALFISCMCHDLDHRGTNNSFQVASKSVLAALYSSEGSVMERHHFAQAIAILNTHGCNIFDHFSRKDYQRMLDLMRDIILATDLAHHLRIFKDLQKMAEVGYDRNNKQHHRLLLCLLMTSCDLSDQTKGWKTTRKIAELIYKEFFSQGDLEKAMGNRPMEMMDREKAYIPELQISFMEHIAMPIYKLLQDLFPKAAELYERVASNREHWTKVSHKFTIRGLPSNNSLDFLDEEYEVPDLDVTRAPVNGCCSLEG
Chain of cAMP and cAMP-inhibited cGMP 3',5'-cyclic phosphodiesterase 10A (Q9Y233 whole entry): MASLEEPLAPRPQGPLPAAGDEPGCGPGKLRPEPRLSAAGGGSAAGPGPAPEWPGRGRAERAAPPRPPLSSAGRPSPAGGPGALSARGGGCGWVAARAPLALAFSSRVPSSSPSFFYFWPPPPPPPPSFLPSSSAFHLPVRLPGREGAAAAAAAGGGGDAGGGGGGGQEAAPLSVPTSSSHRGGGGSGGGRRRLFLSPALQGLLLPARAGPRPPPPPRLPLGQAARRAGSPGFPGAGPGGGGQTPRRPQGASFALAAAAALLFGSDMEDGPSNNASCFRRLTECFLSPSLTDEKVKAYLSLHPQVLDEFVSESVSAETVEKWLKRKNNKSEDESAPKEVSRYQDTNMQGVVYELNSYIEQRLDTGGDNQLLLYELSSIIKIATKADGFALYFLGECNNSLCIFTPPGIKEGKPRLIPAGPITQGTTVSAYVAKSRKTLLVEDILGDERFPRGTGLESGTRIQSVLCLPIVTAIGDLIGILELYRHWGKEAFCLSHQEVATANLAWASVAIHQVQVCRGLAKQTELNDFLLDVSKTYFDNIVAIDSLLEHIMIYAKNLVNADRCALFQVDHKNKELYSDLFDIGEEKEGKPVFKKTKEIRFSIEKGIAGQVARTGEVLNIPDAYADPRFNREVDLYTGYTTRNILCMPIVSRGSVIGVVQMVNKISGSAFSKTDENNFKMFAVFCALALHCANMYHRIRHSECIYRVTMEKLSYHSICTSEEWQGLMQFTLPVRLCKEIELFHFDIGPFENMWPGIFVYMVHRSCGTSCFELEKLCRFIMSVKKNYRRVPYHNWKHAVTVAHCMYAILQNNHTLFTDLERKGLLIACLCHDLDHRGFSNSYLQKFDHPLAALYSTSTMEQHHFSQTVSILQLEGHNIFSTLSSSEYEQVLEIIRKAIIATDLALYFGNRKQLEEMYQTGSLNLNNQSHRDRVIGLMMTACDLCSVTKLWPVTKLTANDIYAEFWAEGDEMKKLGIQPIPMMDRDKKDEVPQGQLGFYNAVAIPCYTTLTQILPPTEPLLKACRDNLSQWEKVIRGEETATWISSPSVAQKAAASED

Question: Which results are given for `Cc1cc(C(=O)N2CC[C@H](C)[C@@H](c3cc(C(F)F)nc4ncnn34)C2)cc(C)n1`?
Answer: ED50 [1]: > 80 mg/kg; IC50 [2]: > 10 µM (not active); IC50 (Phosphodiesterase 3): > 10 µM; IC50 [3]: 0.097 µM (not active)
